Literature values as cited in US20090214462A1, “COCKCROACH JELLY BAIT” (priority 2004, published 2009).

System: cockroaches
Conditions: kill by intake; general statement

OB(O)O [Boric acid]
Time until cockroaches die after intake: one to eight

CCOP(=S)(OCC)Oc1nc(Cl)c(Cl)cc1Cl [Chlorpyrifos]
Time until cockroaches die after intake: 2 to 3 days
